Measured values: article PMC2593151 (Bioorganic & medicinal chemistry letters, 2008)
pEC50, pIC50: −log10 of the molar value. Where two headings read alike, the source gives them in different places.

What was measured:
[1] = molecular target: T1, LuxR (Aliivibrio fischeri, UniProt P35327); experiment: LuxR agonism reporter assay; assay type: cell-based, Vibrio fischeri
[2] = molecular target: T2, LasR (Pseudomonas aeruginosa, UniProt P25084); experiment: LasR agonism reporter gene assay, E. coli DH5α; assay type: cell-based
[3] = molecular target: T3, TraR (Agrobacterium tumefaciens, UniProt P33905); experiment: TraR antagonism reporter gene assay; assay type: cell-based
[4] = molecular target: T1, LuxR; experiment: LuxR antagonism reporter assay; assay type: cell-based, Vibrio fischeri
[5] = molecular target: T1, LuxR; details: cited from earlier work
[6] = molecular target: T2, LasR; details: shown previously; cited from earlier work
[7] = molecular target: T2, LasR; details: read-out: EC50 E. coli LasR; controls; compound alone; ref 5a; cited from earlier work
[8] = molecular target: T3, TraR; details: shown previously; cited from earlier work
[9] = molecular target: T1, LuxR; details: shown previously; cited from earlier work

T3 sequence (P33905 whole entry): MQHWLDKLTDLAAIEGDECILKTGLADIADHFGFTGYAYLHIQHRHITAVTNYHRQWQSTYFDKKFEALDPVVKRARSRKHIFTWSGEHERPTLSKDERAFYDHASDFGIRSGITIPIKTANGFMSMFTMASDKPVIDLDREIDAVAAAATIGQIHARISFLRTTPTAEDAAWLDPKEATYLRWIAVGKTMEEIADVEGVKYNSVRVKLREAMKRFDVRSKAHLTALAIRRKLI
T1 sequence (P35327 whole entry): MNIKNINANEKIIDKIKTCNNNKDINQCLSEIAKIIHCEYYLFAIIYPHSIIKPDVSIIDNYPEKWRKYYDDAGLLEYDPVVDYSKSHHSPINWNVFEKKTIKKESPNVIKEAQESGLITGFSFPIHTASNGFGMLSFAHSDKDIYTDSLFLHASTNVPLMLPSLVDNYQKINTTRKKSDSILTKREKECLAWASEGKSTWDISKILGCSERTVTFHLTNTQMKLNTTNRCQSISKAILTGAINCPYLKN
T2 sequence (P25084 whole entry): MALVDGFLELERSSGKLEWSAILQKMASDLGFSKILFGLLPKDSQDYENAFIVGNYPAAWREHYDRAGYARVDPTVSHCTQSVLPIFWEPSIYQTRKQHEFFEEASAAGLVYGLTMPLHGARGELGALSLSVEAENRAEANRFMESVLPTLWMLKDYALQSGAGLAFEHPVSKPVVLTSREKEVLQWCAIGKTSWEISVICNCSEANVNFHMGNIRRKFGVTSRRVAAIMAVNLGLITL

O=C(Cc1cccc(C(F)(F)F)c1)N[C@H]1CCOC1=O [E3, 3-CF3 PHL]
LuxR activation (in words) ([1]; Library E): failed to activate LuxR

N#Cc1cccc(CC(=O)N[C@H]2CCOC2=O)c1 [E5, 3-CN PHL]
pEC50 [1]: 6.52

O=C(Cc1ccc(SC(F)(F)F)cc1)N[C@H]1CCOC1=O [E8, 4-SCF3 PHL]
pEC50 [2]: 5.47

O=C(Cc1cc(C(F)(F)F)cc(C(F)(F)F)c1)N[C@H]1CCOC1=O [E9, 3,5-CF3 PHL]
pEC50 [1]: 6.43

O=C(COc1ccc([N+](=O)[O-])cc1)N[C@H]1CCOC1=O [E24, 4-NO2 POHL]
pIC50 [3]: ~6.60

O=C(CCc1cccc(Br)c1)N[C@H]1CCOC1=O [E31, 3-Br PPHL]
pIC50 [4]: ~6.33

O=C(CCc1ccc(I)cc1)N[C@H]1CCOC1=O [E32]
pEC50 [2]: < 5.00

O=C(CCc1cccc(I)c1)N[C@H]1CCOC1=O [E33, 3-I PPHL]
pIC50 [4]: ~6.33

O=C(CCc1ccc(C(F)(F)F)cc1)N[C@H]1CCOC1=O [E35, 4-CF3 PHHL]
pIC50 [3]: ~6.60
pEC50 [2]: < 5.00

O=C(CCc1cccc(C(F)(F)F)c1)N[C@H]1CCOC1=O [E36, 3-CF3 PPHL]
pIC50 [4]: ~6.33

O=C(CCc1ccc2c(c1)OCO2)N[C@H]1CCOC1=O [E39]
pEC50 [2]: < 5.00

O=C(Cc1cccc([N+](=O)[O-])c1)N[C@H]1CCOC1=O [compound 4, 3-NO2 PHL]
LuxR activation threshold level ([5]; previously reported LuxR activator): ~ 100%
pEC50 ([5]; read-out: EC50 V. fischeri LuxR, controls, compound alone, ref 5a): 6.46

O=C(COc1ccc(OC(F)(F)F)cc1)N[C@H]1CCOC1=O [compound 6, 4-OCF3 POHL]
LasR inhibition (in words) [6]: moderate
pEC50 [7]: 5.20
TraR inhibition (in words) [8]: strong

O=C(CCc1ccccc1)NC1CCOC1=O (centres unmarked) [compound 7, non-substituted PPHL]
LasR inhibition (in words) [6]: minimal activity
LuxR inhibition (in words) [9]: minimal activity
TraR inhibition (in words) [8]: minimal activity

O=C(CCc1ccc(Br)cc1)N[C@H]1CCOC1=O [compound 8, 4-bromo PPHL]
LasR inhibition (in words) [6]: potent inhibitor
LuxR inhibition (in words) [9]: potent inhibitor
TraR inhibition (in words) [8]: potent inhibitor
